{
  "source": "patent US20230312473A1",
  "about": "“PROCESS FOR THE PREPARATION OF BIHETEROARYL COMPOUNDS AND CRYSTAL FORMS THEREOF” (Genentech, Inc., priority 2020, published 2023)",
  "key": {"[1]": {"assay": "Solubility of compound 1 in the solvent under evaluation at 22° C. and 65° C. (crystallization study)", "type": "physicochemical", "experimental": "Crystalline compound 1 was evaluated. Crystallization study procedures were done based on the solubility of compound 1 in the solvent under evaluation as follows.\nThe results are presented below in Table 10 where: * refers to compound 1 prepared as described above; and ** refers to compound 1 prepared as described above and further incubated at 100% relative humidity at 22° C. for 17 days."}, "[2]": {"assay": "Mechanical stress evaluation: thermogravimetric analysis (TGA)", "type": "physicochemical", "experimental": "Compound 1, produced generally according to the method of Example 5, was evaluated for changes induced mechanical stress conditions, where crystallinity was evaluated by XRPD and where thermoanalytic characteristics were measured by differential scanning calorimetry (“DSC”), thermogravimetric analysis (“TGA”) and dynamic vapor sorption (“DVS”).\nAbout 500 mg of compound 1 was dry grinded for about 5 minutes at ambient conditions with a mortar and pestle in order to simulate shear stresses encountered during a dry granulation. […] Furthermore, thermoanalytic data as measured by DSC, TGA, and DVS was only marginally different from compound 1 starting material (see Table 12 below).\nThe effect of pressure on compound 1 was performed to investigate whether phase transformation could occur during tableting. The conditions were 1.8 T/5 mm compact, 900 MPa, about 30 mg of compound 1, and a dwell time of about 6 seconds). The tablets were analyzed without further treatment and after gentle crushing of the tablets with a pestle. […] FIG. 2 pattern (b) is the XRPD pattern for crushed tablets. FIG. 2 pattern (c) is the XRPD pattern for tablets that were not crushed.\nTo simulate wet milling, wet manual grinding experiments were done. About 500 mg of compound 1 and about 0.5 mL water were kneaded for about 5 minutes with a mortar and pestle. About 100 mg of the wet material was analyzed by XRPD. The remainder of the material was dried overnight in an oven at 50° C. and ambient pressure. The dried material was analyzed by […], DSC, TGA, and DVS."}},
  "note": "Where two headings read alike, the source gives them in different places.",
  "data": [
    {"smiles": "Nc1ncc(-c2cc(N3C[C@@H]4C[C@H]3CO4)nc(N3CCC(F)(F)C3)n2)cc1OC(F)F", "note": "[Compound 1, 5-(6-((1S,4S)-2-oxa-5-azabicyclo[2.2.1]heptan-5-yl)-2-(3,3-difluoropyrrolidin-1-yl)pyrimidin-4-yl)-3-(difluoromethoxy)pyridin-2-amine]", "values": [
      {"measurement": "solubility", "setting": "[1]; Diisopropylamine, 22 °C, organic solvent or mixture, thermodynamic from solid, solvent: Diisopropylamine, read-out: Solubility at 22° C.", "value": "< 50", "unit": "mg/mL"},
      {"measurement": "solubility", "setting": "[1]; Diisopropylamine, 65 °C, organic solvent or mixture, solvent: Diisopropylamine, read-out: Solubility at 65° C.", "value": "< 50", "unit": "mg/mL"},
      {"measurement": "solubility", "setting": "[1]; Dimethyl carbonate, 22 °C, organic solvent or mixture, thermodynamic from solid, solvent: Dimethyl carbonate, read-out: Solubility at 22° C.", "value": "< 50", "unit": "mg/mL"},
      {"measurement": "solubility", "setting": "[1]; Dimethyl carbonate, 65 °C, organic solvent or mixture, solvent: Dimethyl carbonate, read-out: Solubility at 65° C.", "value": "> 50", "unit": "mg/mL"},
      {"measurement": "solubility", "setting": "[1]; Dioxane, 22 °C, organic solvent or mixture, thermodynamic from solid, solvent: Dioxane, read-out: Solubility at 22° C.", "value": "> 50", "unit": "mg/mL"},
      {"measurement": "solubility", "setting": "[1]; Ethyl acetate, 22 °C, organic solvent or mixture, thermodynamic from solid, solvent: Ethyl acetate, read-out: Solubility at 22° C.", "value": "< 50", "unit": "mg/mL"},
      {"measurement": "solubility", "setting": "[1]; Ethyl acetate, 65 °C, organic solvent or mixture, solvent: Ethyl acetate, read-out: Solubility at 65° C.", "value": "> 50", "unit": "mg/mL"},
      {"measurement": "solubility", "setting": "[1]; Isopropyl acetate, 22 °C, organic solvent or mixture, thermodynamic from solid, solvent: Isopropyl acetate, read-out: Solubility at 22° C.", "value": "< 50", "unit": "mg/mL"},
      {"measurement": "solubility", "setting": "[1]; Isopropyl acetate, 65 °C, organic solvent or mixture, solvent: Isopropyl acetate, read-out: Solubility at 65° C.", "value": "< 50", "unit": "mg/mL"},
      {"measurement": "solubility", "setting": "[1]; MEK, 22 °C, organic solvent or mixture, thermodynamic from solid, solvent: MEK, read-out: Solubility at 22° C.", "value": "< 50", "unit": "mg/mL"},
      {"measurement": "solubility", "setting": "[1]; MEK, 65 °C, organic solvent or mixture, thermodynamic from solid, solvent: MEK, read-out: Solubility at 65° C.", "value": "< 50", "unit": "mg/mL"},
      {"measurement": "solubility", "setting": "[1]; MIBK, 22 °C, organic solvent or mixture, thermodynamic from solid, solvent: MIBK, read-out: Solubility at 22° C.", "value": "< 50", "unit": "mg/mL"},
      {"measurement": "solubility", "setting": "[1]; MIBK, 65 °C, organic solvent or mixture, thermodynamic from solid, solvent: MIBK, read-out: Solubility at 65° C.", "value": "< 50", "unit": "mg/mL"},
      {"measurement": "solubility", "setting": "[1]; MTBE, 22 °C, organic solvent or mixture, thermodynamic from solid, solvent: MTBE, read-out: Solubility at 22° C.", "value": "< 50", "unit": "mg/mL"},
      {"measurement": "solubility", "setting": "[1]; MTBE, 65 °C, organic solvent or mixture, thermodynamic from solid, solvent: MTBE, read-out: Solubility at 65° C.", "value": "< 50", "unit": "mg/mL"},
      {"measurement": "solubility", "setting": "[1]; Methanol, 22 °C, organic solvent or mixture, thermodynamic from solid, solvent: Methanol, read-out: Solubility at 22° C.", "value": "< 50", "unit": "mg/mL"},
      {"measurement": "solubility", "setting": "[1]; Methanol, 65 °C, organic solvent or mixture, thermodynamic from solid, solvent: Methanol, read-out: Solubility at 65° C.", "value": "< 50", "unit": "mg/mL"},
      {"measurement": "solubility", "setting": "[1]; NMP, 22 °C, organic solvent or mixture, thermodynamic from solid, solvent: NMP, read-out: Solubility at 22° C.", "value": "> 200", "unit": "mg/mL"},
      {"measurement": "solubility", "setting": "[1]; THF, 22 °C, organic solvent or mixture, thermodynamic from solid, solvent: THF, read-out: Solubility at 22° C.", "value": "> 50", "unit": "mg/mL"},
      {"measurement": "solubility", "setting": "[1]; Toluene, 22 °C, organic solvent or mixture, thermodynamic from solid, solvent: Toluene, read-out: Solubility at 22° C.", "value": "< 50", "unit": "mg/mL"},
      {"measurement": "solubility", "setting": "[1]; Toluene, 65 °C, organic solvent or mixture, thermodynamic from solid, solvent: Toluene, read-out: Solubility at 65° C.", "value": "< 50", "unit": "mg/mL"},
      {"measurement": "solubility", "setting": "[1]; acetone, 22 °C, organic solvent or mixture, thermodynamic from solid, solvent: Acetone, read-out: Solubility at 22° C.", "value": "< 50", "unit": "mg/mL"},
      {"measurement": "solubility", "setting": "[1]; acetone, 65 °C, organic solvent or mixture, solvent: Acetone, read-out: Solubility at 65° C.", "value": "> 50", "unit": "mg/mL"},
      {"measurement": "solubility", "setting": "[1]; butanol, 22 °C, organic solvent or mixture, thermodynamic from solid, solvent: Butanol, read-out: Solubility at 22° C.", "value": "< 50", "unit": "mg/mL"},
      {"measurement": "solubility", "setting": "[1]; butanol, 65 °C, organic solvent or mixture, solvent: Butanol, read-out: Solubility at 65° C.", "value": "< 50", "unit": "mg/mL"},
      {"measurement": "solubility", "setting": "[1]; ethanol, 22 °C, organic solvent or mixture, thermodynamic from solid, solvent: Ethanol, read-out: Solubility at 22° C.", "value": "< 50", "unit": "mg/mL"},
      {"measurement": "solubility", "setting": "[1]; ethanol, 65 °C, organic solvent or mixture, solvent: Ethanol, read-out: Solubility at 65° C.", "value": "< 50", "unit": "mg/mL"},
      {"measurement": "solubility", "setting": "[1]; i-butanol, 22 °C, organic solvent or mixture, thermodynamic from solid, solvent: i-Butanol, read-out: Solubility at 22° C.", "value": "< 50", "unit": "mg/mL"},
      {"measurement": "solubility", "setting": "[1]; i-butanol, 65 °C, organic solvent or mixture, thermodynamic from solid, solvent: i-Butanol, read-out: Solubility at 65° C.", "value": "< 50", "unit": "mg/mL"},
      {"measurement": "solubility", "setting": "[1]; isopropanol, 22 °C, organic solvent or mixture, thermodynamic from solid, solvent: Isopropanol, read-out: Solubility at 22° C.", "value": "< 50", "unit": "mg/mL"},
      {"measurement": "solubility", "setting": "[1]; isopropanol, 65 °C, organic solvent or mixture, solvent: Isopropanol, read-out: Solubility at 65° C.", "value": "< 50", "unit": "mg/mL"},
      {"measurement": "solubility", "setting": "[1]; n-Heptane, 22 °C, organic solvent or mixture, thermodynamic from solid, solvent: n-Heptane, read-out: Solubility at 22° C.", "value": "< 50", "unit": "mg/mL"},
      {"measurement": "solubility", "setting": "[1]; n-Heptane, 65 °C, organic solvent or mixture, thermodynamic from solid, solvent: n-Heptane, read-out: Solubility at 65° C.", "value": "< 50", "unit": "mg/mL"},
      {"measurement": "solubility", "setting": "[1]; nitromethane, 22 °C, organic solvent or mixture, thermodynamic from solid, solvent: Nitromethane, read-out: Solubility at 22° C.", "value": "< 50", "unit": "mg/mL"},
      {"measurement": "solubility", "setting": "[1]; nitromethane, 65 °C, organic solvent or mixture, thermodynamic from solid, solvent: Nitromethane, read-out: Solubility at 65° C.", "value": "> 50", "unit": "mg/mL"},
      {"measurement": "solubility", "setting": "[1]; propanol, 22 °C, organic solvent or mixture, thermodynamic from solid, solvent: Propanol, read-out: Solubility at 22° C.", "value": "< 50", "unit": "mg/mL"},
      {"measurement": "solubility", "setting": "[1]; propanol, 65 °C, organic solvent or mixture, thermodynamic from solid, solvent: Propanol, read-out: Solubility at 65° C.", "value": "< 50", "unit": "mg/mL"},
      {"measurement": "solubility", "setting": "[1]; s-butanol, 22 °C, organic solvent or mixture, thermodynamic from solid, solvent: s-butanol, read-out: Solubility at 22° C.", "value": "< 50", "unit": "mg/mL"},
      {"measurement": "solubility", "setting": "[1]; s-butanol, 65 °C, organic solvent or mixture, thermodynamic from solid, solvent: s-butanol, read-out: Solubility at 65° C.", "value": "< 50", "unit": "mg/mL"},
      {"measurement": "solubility", "setting": "[1]; water, 22 °C, water, thermodynamic from solid, solvent: Water, read-out: Solubility at 22° C.", "value": "< 50", "unit": "mg/mL"},
      {"measurement": "solubility", "setting": "[1]; water, 65 °C, water, thermodynamic from solid, solvent: Water, read-out: Solubility at 65° C.", "value": "< 50", "unit": "mg/mL"},
      {"measurement": "TGA Total wt. loss", "setting": "[2]; after Dry Granulation (dry grinding about 5 minutes, mortar and pestle)", "value": 0.2, "unit": "% m/m"},
      {"measurement": "TGA Total wt. loss", "setting": "[2]; after Tableting (900 MPa)", "value": 0.3, "unit": "% m/m"},
      {"measurement": "TGA Total wt. loss", "setting": "[2]; after Tableting (crushing)", "value": 0.3, "unit": "% m/m"},
      {"measurement": "TGA Total wt. loss", "setting": "[2]; after Wet Granulation (wet manual grinding with water, dried at 50° C.)", "value": 0.2, "unit": "% m/m"},
      {"measurement": "TGA Total wt. loss", "setting": "[2]; untreated compound 1 starting material", "value": 0.1, "unit": "% m/m"}
    ]}
  ]
}
